For this experiment, the system named is P388 leukemia ip, CD2F1 mice, survival T/C. Put plainly: NCI In Vivo Anticancer Drug Screen. Data for tumor model P388 Leukemia (intraperitoneal) in CD2F1 (CDF1) mice. Conditions: endpoint: median survival time, higher = longer survival. In short, it runs like this: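 Mice carrying the transplanted tumor received test compound or vehicle. Survival was recorded in each group, and the value is the treated-group measurement divided by that of the vehicle-treated control group.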

Setting [1] is: dose: 50.0 mg/kg/injection, schedule: Q01DX009 (ip), vehicle: saline with Tween-80.
[2] abbreviates: dose: 100.0 mg/kg/injection, schedule: Q01DX009 (ip), vehicle: saline with Tween-80.
The mark [3] stands for this setting: dose: 200.0 mg/kg/injection, schedule: Q01DX009 (ip), vehicle: saline with Tween-80.
Where [4] appears, read: dose: 100.0 mg/kg/injection, schedule: Q04DX003 (ip), vehicle: saline with Tween-80.
The mark [5] stands for this setting: dose: 60.0 mg/kg/injection, schedule: Q01DX005 (ip), vehicle: saline with Tween-80.
The mark [6] stands for this setting: dose: 120.0 mg/kg/injection, schedule: Q01DX005 (ip), vehicle: saline with Tween-80.
Setting [7] is: dose: 240.0 mg/kg/injection, schedule: Q01DX005 (ip), vehicle: saline with Tween-80.
The mark [8] stands for this setting: dose: 200.0 mg/kg/injection, schedule: Q04DX003 (ip), vehicle: saline with Tween-80.
[9] abbreviates: dose: 400.0 mg/kg/injection, schedule: Q04DX003 (ip), vehicle: saline with Tween-80.
Setting [10] is: dose: 50.0 mg/kg/injection, schedule: Q01DX009 (ip), vehicle: Klucel (hydroxypropylcellulose) (HPC).
[11] abbreviates: dose: 100.0 mg/kg/injection, schedule: Q01DX009 (ip), vehicle: Klucel (hydroxypropylcellulose) (HPC).
The mark [12] stands for this setting: dose: 50.0 mg/kg/injection, schedule: Q01DX005 (ip), vehicle: Klucel (hydroxypropylcellulose) (HPC).
[13] abbreviates: dose: 100.0 mg/kg/injection, schedule: Q01DX005 (ip), vehicle: Klucel (hydroxypropylcellulose) (HPC).
The mark [14] stands for this setting: dose: 200.0 mg/kg/injection, schedule: Q01DX005 (ip), vehicle: Klucel (hydroxypropylcellulose) (HPC).
[15] abbreviates: dose: 50.0 mg/kg/injection, schedule: Q01DX005 (ip), vehicle: saline with Tween-80.
The mark [16] stands for this setting: dose: 100.0 mg/kg/injection, schedule: Q01DX005 (ip), vehicle: saline with Tween-80.
[17] abbreviates: dose: 200.0 mg/kg/injection, schedule: Q01DX005 (ip), vehicle: saline with Tween-80.

“And” between values parts separate entries of the source, which are not always exact repeats. Equal values may be shown once. Inconclusive results and toxic doses are left out.

Consider `CCOC(=O)CCCC(=O)Cl`, for which the T/C is, setting by setting: under setting [1], 94 % of control; under setting [2], 99 % of control; under setting [3], 96 % of control.
With `CN(C)c1ccc(Nc2c3ccccc3nc3ccccc23)cc1`, the T/C (dose: 12.5 mg/kg/injection, schedule: Q04DX002 (ip), vehicle: distilled water + Tween-80) was 113 % of control; the T/C (dose: 13.0 mg/kg/injection, schedule: Q04DX003 (ip), vehicle: saline with Tween-80) was 100 % of control and 103 % of control; the T/C (dose: 21.6 mg/kg/injection, schedule: Q04DX003 (ip), vehicle: saline with Tween-80) is 107 % of control and 111 % of control; the T/C (dose: 25.0 mg/kg/injection, schedule: Q04DX002 (ip), vehicle: distilled water + Tween-80) is 150 % of control and 156 % of control; the T/C (dose: 25.9 mg/kg/injection, schedule: Q04DX003 (ip), vehicle: saline) is 109 % of control; the T/C (dose: 36.0 mg/kg/injection, schedule: Q04DX003 (ip), vehicle: saline with Tween-80) was 110 % of control and 111 % of control. For the same compound, the T/C (dose: 50.0 mg/kg/injection, schedule: Q04DX002 (ip), vehicle: distilled water + Tween-80) is 185 % of control and 196 % of control; the T/C under setting [4] was 157 % of control; the T/C (dose: 120.0 mg/kg/injection, schedule: Q04DX003 (ip), vehicle: saline) was 179 % of control.
With `Nc1cccc(C(=O)c2ccc(N)c(N)c2)c1`, the T/C under setting [5] is 90 % of control and the T/C under setting [6] is 92 % of control.
Turning to `O=C1c2ccccc2C(=O)c2c1cccc2N1C(=O)C=CC1=O`, the T/C is, setting by setting: under setting [5], 101 % of control; under setting [6], 95 % of control; under setting [7], 93 % of control.
`O=C1C2=C(C(=O)c3ncccc31)C1C=CC2CC1` (centres undefined): the T/C is 100 % of control (dose: 25.0 mg/kg/injection, schedule: Q01DX005 (ip), vehicle: DMSO); 100 % of control (dose: 50.0 mg/kg/injection, schedule: Q01DX005 (ip), vehicle: DMSO); 102 % of control (dose: 50.0 mg/kg/injection, schedule: Q01DX005 (ip), vehicle: Klucel + Tween-80); 104 % of control (dose: 100.0 mg/kg/injection, schedule: Q01DX005 (ip), vehicle: DMSO); 96 % of control (dose: 100.0 mg/kg/injection, schedule: Q01DX005 (ip), vehicle: Klucel + Tween-80).
On to `C=CC(=C)CCC=C(C)C`, for which the T/C runs as follows: under setting [2], 104 % of control; under setting [4], 110 % of control; under setting [3], 113 % of control; under setting [8], 110 % of control; under setting [9], 110 % of control.
Turning to `Oc1cc2c(cc1C1COc3cc(OCc4ccccc4)ccc3C1)OCO2` (centres undefined), the T/C by setting is: (dose: 50.0 mg/kg/injection, schedule: Q01DX001 (ip), vehicle: Klucel (hydroxypropylcellulose) (HPC)) 95 % of control; (dose: 100.0 mg/kg/injection, schedule: Q01DX001 (ip), vehicle: Klucel (hydroxypropylcellulose) (HPC)) 90 % of control; (dose: 200.0 mg/kg/injection, schedule: Q01DX001 (ip), vehicle: Klucel (hydroxypropylcellulose) (HPC)) 93 % of control.
As for `CC[N+]1([O-])CCOCC1`, the T/C is, setting by setting: (dose: 50.0 mg/kg/injection, schedule: Q01DX009 (ip), vehicle: saline) 97 % of control; (dose: 100.0 mg/kg/injection, schedule: Q01DX009 (ip), vehicle: saline) 101 % of control; (dose: 200.0 mg/kg/injection, schedule: Q01DX009 (ip), vehicle: saline) 113 % of control.
`CCCCCCC/C=C/C(=O)OC1C(OC2C(OC(CCCCCCC)CC(=O)OC(CCCCCCC)CC(=O)O)OC(C)C(O)C2O)OC(C)C(O)C1O` (centres undefined): the T/C was 102 % of control and 89 % of control (dose: 12.5 mg/kg/injection, schedule: Q01DX009 (ip), vehicle: Klucel (hydroxypropylcellulose) (HPC)); 98 % of control and 120 % of control and 87 % of control (dose: 25.0 mg/kg/injection, schedule: Q01DX009 (ip), vehicle: Klucel (hydroxypropylcellulose) (HPC)); 120 % of control and 95 % of control (2×) under setting [10]; 116 % of control under setting [11].
Take `NC(N)=NC(N)=Nc1cc2c3ccccc3ccc2c2ccccc12`: the T/C is, setting by setting: (dose: 25.0 mg/kg/injection, schedule: Q01DX001 (ip), vehicle: saline with Tween-80) 100 % of control; (dose: 50.0 mg/kg/injection, schedule: Q01DX001 (ip), vehicle: saline with Tween-80) 98 % of control; (dose: 100.0 mg/kg/injection, schedule: Q01DX001 (ip), vehicle: saline with Tween-80) 92 % of control.
Turning to `CSc1ccc(NC(=O)ON2CCCCC2)cc1`, the T/C is 99 % of control under setting [1], 108 % of control under setting [2] and 101 % of control under setting [3].
For the compound `CCC#CC(=O)OCC`, the T/C is, setting by setting: under setting [5], 113 % of control; under setting [6], 102 % of control; under setting [7], 121 % of control.
In the case of `CCOC(=O)c1cn(C)c2c1C(O)=C(C(=O)OC)CC(=O)N2`, the T/C reads like this: under setting [4], 95 % of control; under setting [8], 100 % of control; under setting [9], 117 % of control.
Regarding `O=c1cc(C(F)(F)F)c2cc3c4c(c2o1)CCCN4CCC3`, the T/C under setting [12] is 106 % of control, the T/C under setting [13] is 100 % of control and the T/C under setting [14] is 99 % of control.
With `CC1(C)N=C(N)N=C(N)N1c1ccc(CNC(=O)Nc2cccc(S(=O)(=O)F)c2)cc1`, the T/C runs as follows: (dose: 100.0 mg/kg/injection, schedule: Q04DX003 (ip), vehicle: saline) 154 % of control; (dose: 150.0 mg/kg/injection, schedule: Q04DX003 (ip), vehicle: saline) 168 % of control; (dose: 225.0 mg/kg/injection, schedule: Q04DX003 (ip), vehicle: saline) 200 % of control.
As for `CN(C)C1C(=O)C(C(N)=O)=C(O)C2(O)C(=O)C3=C(O)c4c(O)cccc4C(C)(O)C3C(O)C12.[Cl][Sb]([Cl])[Cl]` (centres undefined), the T/C was 113 % of control under setting [15] and 99 % of control under setting [16].
For `O=C(NC(=O)c1ccccc1F)Nc1ccc(C(O)(C(F)(F)F)C(F)(F)F)cc1`, the T/C is, setting by setting: under setting [15], 104 % of control; under setting [16], 98 % of control; under setting [17], 100 % of control.
Consider `COC(=O)C1=C(C(=O)OC)C2C=CC1C1C(Br)C(Br)C21` (centres undefined), for which the T/C was 100 % of control under setting [10]; 102 % of control under setting [11]; 100 % of control (dose: 200.0 mg/kg/injection, schedule: Q01DX009 (ip), vehicle: Klucel (hydroxypropylcellulose) (HPC)).
For the compound `O=C(O)C(Oc1ccc(Cl)cc1Cl)C(Oc1ccc(Cl)cc1Cl)C(=O)O` (centres undefined), the T/C was 101 % of control (dose: 60.0 mg/kg/injection, schedule: Q01DX005 (ip), vehicle: Klucel (hydroxypropylcellulose) (HPC)); 101 % of control (dose: 120.0 mg/kg/injection, schedule: Q01DX005 (ip), vehicle: Klucel (hydroxypropylcellulose) (HPC)); 100 % of control (dose: 240.0 mg/kg/injection, schedule: Q01DX005 (ip), vehicle: Klucel (hydroxypropylcellulose) (HPC)).
As to `O=C(CN1CCNCC1)N1CCCC1`, the T/C was 106 % of control under setting [12], 97 % of control under setting [13] and 98 % of control under setting [14].
For `N/C(CCSc1ccccc1N=Cc1ccccc1O)=N/O`, the T/C is, setting by setting: (dose: 12.5 mg/kg/injection, schedule: Q01DX009 (ip), vehicle: olive oil, sesame oil, peanut oil) 102 % of control; (dose: 25.0 mg/kg/injection, schedule: Q01DX009 (ip), vehicle: olive oil, sesame oil, peanut oil) 104 % of control; (dose: 50.0 mg/kg/injection, schedule: Q01DX009 (ip), vehicle: olive oil, sesame oil, peanut oil) 104 % of control.
For `CCN(CC)CCOc1cccc2c1C(=O)c1c(O)cccc1C2=O`, the T/C is, setting by setting: (dose: 25.0 mg/kg/injection, schedule: Q01DX009 (ip), vehicle: saline with Tween-80) 103 % of control and 95 % of control; under setting [1], 105 % of control and 97 % of control; under setting [2], 158 % of control.
As to `COC(=O)c1c(C)oc2ccccc2c1=O`, the T/C under setting [12] is 101 % of control, the T/C under setting [13] was 103 % of control and the T/C under setting [14] is 103 % of control.
Consider `COc1cc(N)c(S(=O)(=O)O)cc1N=N/C(=N/Nc1cc(S(=O)(=O)O)c(N)cc1OC)C(=O)Nc1ccccc1`, for which the T/C is 107 % of control under setting [12], 104 % of control under setting [13] and 109 % of control under setting [14].
In the case of `c1ccc2c(OCC3CO3)c3ccccc3nc2c1` (centres undefined), the T/C is, setting by setting: under setting [15], 118 % of control; under setting [16], 108 % of control; under setting [17], 102 % of control.

These data come from PubChem BioAssay AID330 (DTP/NCI, 2004).
